Data reported in article PMC11465415, “Characterization of conformational states of the homodimeric enzyme fluoroacetate dehalogenase by ^19F–^13C two-dimensional NMR” (RSC Chemical Biology, 2024).

Molecular target: T1, fluoroacetate dehalogenase (FAcD) (Rhodopseudomonas palustris, UniProt Q6NAM1)
T1 construct: gene RPA1163; 300-residue homodimer expressed in E. coli BL21; all Trp replaced biosynthetically by 5-fluoro-(phenyl-13C6)-L-tryptophan; 9 Trp per protomer
Assay: […]-13C TROSY HSQC and 1D […] NMR
Assay type: binding
Settings: 50 °C; enzyme saturated with bromoacetate; 5-fluorotryptophan-labelled enzyme; active site; unreacted substrate analogue

T1 sequence (Q6NAM1 whole entry): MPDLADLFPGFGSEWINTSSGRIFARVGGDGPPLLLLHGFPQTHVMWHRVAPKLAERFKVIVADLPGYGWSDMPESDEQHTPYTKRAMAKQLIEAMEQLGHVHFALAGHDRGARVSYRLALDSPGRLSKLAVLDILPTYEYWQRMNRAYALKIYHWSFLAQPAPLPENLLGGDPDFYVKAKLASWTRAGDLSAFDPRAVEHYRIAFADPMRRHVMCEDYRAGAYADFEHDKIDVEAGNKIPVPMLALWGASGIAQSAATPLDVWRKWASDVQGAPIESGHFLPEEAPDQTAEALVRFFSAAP

O=C(O)CBr [bromoacetate]
19F-13C TROSY HSQC and 1D 19F NMR: The addition of BrAc is also observed to result in a pronounced shift for W185
